Data: patent publication US9676786B2, “Pharmacologically active compounds” (The University of Liverpool, priority 2013, dated 2017)
Read-outs that look alike come from different tables or passages of the source.

How the values were obtained:
neuropathic rats [1] = experiment: Comparison of LT-01-25 and LT-01-89: ipsilateral paw withdrawal thresholds to mechanical pressure in neuropathic rats; format: in vivo, rat; details: male SD rats
Experimental: Male, SD rats. n=6/group. Vehicle: 10% DMSO/10% Solutol HS15/80% saline.
• 1) In rats a peripheral neuropathy was induced by partial ligation of the sciatic nerve in one hind limb. • 2) Two weeks (12-15 days) after induction of peripheral neuropathy stable mechanical (tactile) allodynia was induced in the hind paw of the affected limb. • 3) Five treatment groups of male SD rats (n=8) were used: vehicle control (drug formulation), 3 drug doses, and a positive control, lamotrigine (30 mg/kg). Animals were randomized between groups and the experiment was carried out using blinded conditions. The study was split with n=4/group in each experiment. • 4) Baseline behavioural measurements were obtained prior to surgery and at intervals post-surgery. Predose behavioural measurements were obtained by measuring paw withdrawal thresholds 12-15 days following nerve ligation. • 5) Compound efficacy was determined by measuring paw withdrawal thresholds at specified intervals following vehicle/compound treatment. Methods Animals
Animals were maintained in a controlled lighting environment and given food and water ad libitum. Male Sprague Dawley rats (120-140 g at time of surgery) were used.
Rats were fasted overnight with free access to water and fed 4 hours post-dose.
Tests compounds as well as Lamotrigine (30 mg/kg, volume: 10 ml/kg)) were prepared in the designated formulation (10% DMSO, Solutol HS 15/80% and 0.9% saline for p.o. administration) and administered via the chosen route.
Rats were anaesthetised (isoflurane/O2 inhalation), the left sciatic nerve was exposed at mid-thigh level through a small incision and ⅓ to ½ of the nerve thickness tightly ligated within a 7.0 silk suture. The wound was closed with skin clips. Animals were allowed to recover and compounds administered 12-15 days following surgery.
Compound/vehicle were administered at specified doses. Following treatment, further readings were taken; 1, 3, 6 and 24 hour after p.o. administration.

neuropathic rats [2] = experiment: Mechanical hyperalgesia, paw withdrawal thresholds in neuropathic rats (partial sciatic nerve ligation); format: in vivo, rat; details: neuropathic Wistar rats
Text: (§1) The wound was closed with skin clips.
(§2) Control animals received vehicle alone.

neuropathic rats [3] = experiment: Comparison of LT-01-25 and LT-01-89: ipsilateral withdrawal latencies to cold (10° C.) stimulus in neuropathic rats; format: in vivo, rat; details: male SD rats
[4] = Cerebrospinal fluid (CSF) levels after oral dosing; format: in vivo; details: p.o. dose 3 mg/kg, after 2 hr, fasted male SD rat
[5] = Pharmacokinetic evaluation, oral dosing in rats; format: in vivo, rat; details: 10 mg/kg oral
Experimental: • Dose—10 mg/kg (5 mL/kg) • Route—ORAL • Vehicles—10% DMSO/10% Solutol and SSV • Time—24 h • Procedure Number—6 Vehicles • 10% DMSO/10% Solutol/80% Saline • 1) Compound was weighed out into a clean vial. • 2) DMSO was added into the vial; the vial was vortexed and sonicated it for 15 min. • 3) Solutol HS 15 was heated at 50° C. until a liquid formed, and then was added into the vial. The vial was vortexed for 1-2 min. • 4) 0.9% Saline solution was added to the vial. The vial was vortexed and then sonicated for 10 min. Standard Suspension Vehicle (SSV) • 1) A solution of SSV was made using 0.5% Sodium carboxymethylcellulose, 0.5% Benzyl alcohol, 0.4% Tween80 and 98.6% saline (0.9%) • 2) Compound was weighed out into a clean vial • 3) SSV solution was added into the vial; the vial was vortexed and sonicated it for 15 min. Fasted Rats
Fasted rats were fasted overnight and given access to food immediately after dosing.
• 1) Rats were manually restrained and given a 10 mg/kg oral dose of compound at 5 mL/kg. • 2) At designated time points (0.25, 0.5, 1, 3, 5, 7 and 24 hours) the rats were anaesthetised using isoflurane. • 3) Approximately 300 μL of blood was taken from the tail vein using a 1.5 inch needle treated with heparin and collected into 1.5 mL eppendorf tubes. • 4) After sampling, pressure was applied to the puncture until bleeding ceased. The animals were returned to their cages and given free access to food and water. • 5) Blood samples were stored on ice and then centrifuged at 13,000 rpm for 15 min to separate the plasma. • 6) 150 μL of the plasma was treated with 300 μL of ACN:MeOH (1:1) solution containing the internal standard. The samples were then centrifuged for a further 15 min at 13,000 rpm. • 7) 200 μL of the supernatant was collected and placed in LC-MS vials for analysis. All samples were stored at −80° C. Results

Rat microsomal stability = format: in vitro ADME; details: for half-life at 1 μM: rat, rat microsomes
Text: Rat and human microsomal stability data was obtained using well established protocols known to those skilled in the art.

neuropathic rats [6] = experiment: Cold sensitivity (10° C. cold plate), paw withdrawal latencies in neuropathic rats; format: in vivo, rat; details: neuropathic Wistar rats
Text: as §1, §2

[7] = Human microsomal stability; format: in vitro ADME
Experimental: The metabolic stability assay was performed by incubating each test compound (1 μM) with human liver microsomes in duplicate at 37° C. and 0.4 mg/mL protein concentration. The metabolic reaction was initiated by the addition of a NADPH-regenerating system (i.e. NADPH is the cofactor required for CYP450-mediated metabolism) and quenched at various time points over the 60 minute incubation period by the addition of acetonitrile. Control samples (containing no NADPH) were included (and quenched at 2, 30 and 60 minutes) to monitor for potential degradation in the absence of cofactor. Samples were analysed by UPLC-MS (Waters/Micromass Xevo G2 QTOF) under positive electrospray ionisation and MS spectral data acquired in a mass range of 80 to 1200 Daltons.
Test compound concentration versus time data were fitted to an exponential decay function to determine the first-order rate constant for substrate depletion. In cases where clear deviation from first-order kinetics was evident, only the initial linear portion of the profile was utilised to determine the degradation rate constant (k). Each substrate depletion rate constant was then used to calculate: [1] a degradation half-life, [2] an in vitro intrinsic clearance value (CLint, in vitro); [3] a predicted in vivo hepatic intrinsic clearance value (CLint); [4] a predicted in vivo blood clearance value (CLblood); and [5] a predicted in vivo hepatic extraction ratio (EH).
• 1) The substrate concentration employed is well below the apparent KM for substrate turnover; and, • 2) There is no significant product inhibition, nor is there any mechanism-based inactivation of enzyme. The use of hepatic microsomes in the prediction of the in vivo hepatic extraction ratio has two further inherent assumptions (Obach, 1999) which: • 1) NADPH-dependent oxidative metabolism predominates over other metabolic routes (i.e. direct conjugative metabolism, reduction, hydrolysis, etc.); and, • 2) Rates of metabolism and enzyme activities in vitro are truly reflective of those that exist in vivo. Data should be considered within these terms of reference.

α1 glycine receptor = α1 glycine receptor (Homo sapiens (Human), UniProt P23415); experiment: Expression and electrophysiological characterization of glycine receptor activity (patch/voltage clamp); format: cell-based; details: modulation of agonist induced currents at glycine EC20; means ± s.d.
Chain of α1 glycine receptor (P23415 29-457 limits assumed): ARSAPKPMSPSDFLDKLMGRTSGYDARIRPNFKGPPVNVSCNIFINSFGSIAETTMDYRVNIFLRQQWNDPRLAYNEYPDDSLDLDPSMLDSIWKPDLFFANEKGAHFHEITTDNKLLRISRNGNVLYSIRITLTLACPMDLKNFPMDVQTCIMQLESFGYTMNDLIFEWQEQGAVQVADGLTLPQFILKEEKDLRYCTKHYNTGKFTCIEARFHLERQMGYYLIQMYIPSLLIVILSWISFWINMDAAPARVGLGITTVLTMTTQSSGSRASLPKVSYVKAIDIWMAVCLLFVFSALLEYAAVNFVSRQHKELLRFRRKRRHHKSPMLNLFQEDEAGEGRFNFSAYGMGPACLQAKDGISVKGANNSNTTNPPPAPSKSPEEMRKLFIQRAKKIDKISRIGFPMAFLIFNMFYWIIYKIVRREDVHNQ
Experimental: Human embryonic kidney (HEK) 293 cells (ATCC CRL 1573) and/or Xenopus laevis oocytes were used for expressing the human a1-3 glycine receptor subunit as well as human a1, b3, g2 GABA receptor subunit cDNAs inserted into mammalian expression vectors. Patch- and voltage-clamp recording from receptor expressing cells was performed at a holding potential of −70 mV in normal Ringer solution and digitized for analyses. Dose-response curves of agonist induced peak currents (I) were normalized to the maximal current value obtained and fitted with the sigmoidal Hill equation using a Gauss Marquardt iteration, where EC50 represents the glycine/GABA concentration resulting in a half maximal response. Effects of the compounds tested on agonist induced currents were analysed after superfusing the cells with the respective compound for 5 seconds prior to and during agonist application and dose-response curves of modulated currents were determined in the presence of agonist concentrations eliciting a response corresponding to 20% of the maximal inducible current (EC20 value). Results represent means±s.d. and the significance of the data was evaluated using Student's paired t test and considered to be statistically significant at P<0.05.

[8] = 10% DMSO/10% Solutol/80% Saline, fasted rats
[9] = 10% DMSO/10% Solutol/80% Saline, non-fasted rats
[10] = rat, plasma, po, 10 mg/kg, 10% DMSO/10% Solutol/80% Saline, fasted rats
[11] = rat, plasma, po, 10 mg/kg, 10% DMSO/10% Solutol/80% Saline, non-fasted rats
[12] = rat, plasma, po, 10 mg/kg, SSV, fasted rats
[13] = rat, plasma, po, 10 mg/kg, SSV, non-fasted rats
[14] = Rat microsomes, 1 μM, second set marked *

## CC(C)c1cc(C(=O)N2CCOCC2)cc(C(C)C)c1O [LT-01-25, (4-(hydroxy)-3,5-diisopropylphenyl)(morpholino)methanone]
Neuropathic rats [1]; 10 mg/kg p.o., 1 hr
  Mechanical pressure Percentage reversal of predose hyperalgesia: 1 hr - - - 80%
Neuropathic rats [1]; 10 mg/kg p.o., 3 hr
  Mechanical pressure Percentage reversal of predose hyperalgesia: 3 hr - - - 90%
Neuropathic rats [1]; 10 mg/kg p.o., 6 hr
  Mechanical pressure Percentage reversal of predose hyperalgesia: 6 hr - - - 40%
Neuropathic rats [2]; p.o., peak occurred at 3h
  Peak reversal, mechanical (paw pressure): 90%
Neuropathic rats [3]; 10 mg/kg p.o., 1 hr
  Cold (10° C.) Stimulus Percentage reversal of predose Hyperalgesia: 1 hr - - - 85%
Neuropathic rats [3]; 10 mg/kg p.o., 3 hr
  Cold (10° C.) Stimulus Percentage reversal of predose Hyperalgesia: 3 hr - - - 35%
Neuropathic rats [3]; 10 mg/kg p.o., 6 hr
  Cold (10° C.) Stimulus Percentage reversal of predose Hyperalgesia: 6 hr - - - 35%
[4]
  CSF levels: 95 ng/mL
  CSF levels as multiple of EC50: (900 × EC50)
[5]; [8]
  CL (area)/kg: 19.532 mL/min/kg
  Vd (area)/kg: 2.3006 L/kg
[5]; [9]
  CL (area)/kg: 8.423 mL/min/kg
  Vd (area)/kg: 0.9737 L/kg
[5]; SSV, fasted rats
  CL (area)/kg: 9.193 mL/min/kg
  Vd (area)/kg: 1.1426 L/kg
[5]; SSV, non-fasted rats
  CL (area)/kg: 8.662 mL/min/kg
  Half Life: 3.6 h
  Vd (area)/kg: 2.7109 L/kg
[5]; [10]
  AUC(0-inf): 8530 ng·h/mL
  half-life: 1.4 h
[5]; rat, plasma, po, 10 mg/kg, 10% DMSO/10% Solutol/80% Saline, fasted rats, read-out: Cmax
  Cmax: 2420 ng/mL
[5]; rat, plasma, po, 10 mg/kg, 10% DMSO/10% Solutol/80% Saline, fasted rats, read-out: Tmax
  Tmax: 0.3 h
[5]; [11]
  AUC(0-inf): 20400 ng·h/mL
  half-life: 1.4 h
[5]; rat, plasma, po, 10 mg/kg, 10% DMSO/10% Solutol/80% Saline, non-fasted rats, read-out: Cmax
  Cmax: 1710 ng/mL
[5]; rat, plasma, po, 10 mg/kg, 10% DMSO/10% Solutol/80% Saline, non-fasted rats, read-out: Tmax
  Tmax: 4 h
[5]; [12]
  AUC(0-inf): 18100 ng·h/mL
  half-life: 1.4 h
[5]; rat, plasma, po, 10 mg/kg, SSV, fasted rats, read-out: Cmax
  Cmax: 2590 ng/mL
[5]; rat, plasma, po, 10 mg/kg, SSV, fasted rats, read-out: Tmax
  Tmax: 1 h
[5]; [13]
  AUC(0-inf): 19000 ng·h/mL
  half-life: 3.62 h
[5]; rat, plasma, po, 10 mg/kg, SSV, non-fasted rats, read-out: Cmax
  Cmax: 2120 ng/mL
[5]; rat, plasma, po, 10 mg/kg, SSV, non-fasted rats, read-out: Tmax
  Tmax: 0.25 h
Rat microsomal stability; Rat microsomes, 1 μM
  Cl: 3.35 mL/min/kg
Rat microsomal stability; [14]
  Cl (values marked *): 1.07 mL/min/kg (Cl)*
Rat microsomal stability; read-out: t1/2
  half-life at 1 μM: 12.3 h
Rat microsomal stability; second set marked *, read-out: t1/2 (values marked *)
  half-life at 1 μM: 19.2 h
Neuropathic rats [6]; p.o., peak occurred at 1h
  Peak reversal, cold (10° C. cold plate): 93%
[7]; human liver microsomes, read-out: t1/2 (values marked *)
  half-life at 1 μM: 8.25 h
[7]; human microsomes, 1 μM
  Cl (values marked *): 2.7 mL/min/kg (Cl) *

## CC(C)(C)c1cc(C(=O)N2CCOCC2)cc(C(C)(C)C)c1O [LT-01-89, (4-(hydroxy)-3,5-di-tertbutyl)(morpholino)methanone, reference compound]
Neuropathic rats [1]; 30 mg/kg p.o., 1 hr
  Mechanical pressure Percentage reversal of predose hyperalgesia: 1 hr - - - 70%
Neuropathic rats [1]; 30 mg/kg p.o., 3 hr
  Mechanical pressure Percentage reversal of predose hyperalgesia: 3 hr - - - 50%
Neuropathic rats [1]; 30 mg/kg p.o., 6 hr
  Mechanical pressure Percentage reversal of predose hyperalgesia: 6 hr - - - 20%
Neuropathic rats [3]; 30 mg/kg p.o., 1 hr
  Cold (10° C.) Stimulus Percentage reversal of predose Hyperalgesia: 1 hr - - - 70%
Neuropathic rats [3]; 30 mg/kg p.o., 3 hr
  Cold (10° C.) Stimulus Percentage reversal of predose Hyperalgesia: 3 hr - - - 65%
Neuropathic rats [3]; 30 mg/kg p.o., 6 hr
  Cold (10° C.) Stimulus Percentage reversal of predose Hyperalgesia: 6 hr - - - 10%
[4]
  CSF levels: 27 ng/mL
  CSF levels as multiple of EC50: (180 × EC50)
[5]; SSV, non-fasted rats
  AUC∞ (area): 5931.7 ng·h/mL
  CL (area)/kg: 17.947 mL/min/kg
  Cmax: 471.2 ng/mL
  Half Life: 20.4 h
  Tmax: 1.2 h
  Vd (area)/kg: 32.7299 L/kg
Rat microsomal stability; Rat microsomes, 1 μM
  Cl: 20.38 mL/min/kg
  t1/2: 2.02 h
Rat microsomal stability; [14]
  Cl (values marked *): 5.26 mL/min/kg (Cl)*
  t1/2 (values marked *): 165 min (t1/2)*
[7]; human microsomes, 1 μM
  Cl (values marked *): 6.2 mL/min/kg (Cl) *
  t1/2 (values marked *): 138.6 min (t1/2) *

## CC(C)c1cc(C(=O)N2CCO[C@H](C)C2)cc(C(C)C)c1O [Example 2, (R)-(4-(hydroxy)-3,5-diisopropylphenyl)(2-methylmorpholino)methanone]
α1 glycine receptor
  EC50: 0.06 nM

## CC(C)c1cc(C(=O)N2CC(F)C2)cc(C(C)C)c1O [Example 3, (3-Fluoroazetidin-1-yl)(4-hydroxy-3,5-diisopropylphenyl) methanone]
α1 glycine receptor
  EC50: 0.43 nM

## Nc1nnc(-c2cccc(Cl)c2Cl)c(N)n1 [lamotrigine, reference compound]
Neuropathic rats [2]; positive control
  Reversal, mechanical (positive control): 65%
Neuropathic rats [6]; positive control
  Reversal, cold (positive control): 72%

## CC(C)c1cc(C(=O)N2CCN(C)CC2)cc(C(C)C)c1O [Example 6, (4-Hydroxy-3-5-diisopropylphenyl)(4-methylpiperazin-1-yl)methanone]
α1 glycine receptor
  EC50: 0.0012 nM
